This passage reports Kd results from paper PMC6025622, “A Novel Atypical PKC-Iota Inhibitor, Echinochrome A, Enhances Cardiomyocyte Differentiation from Mouse Embryonic Stem Cells” (Marine Drugs, 2018).

This experiment has as its target T1, atypical protein kinase C-iota (PKCι) (Homo sapiens, UniProt P41743).
T1 construct: gene PRKCI; full-length protein
T1 sequence (P41743 2-596): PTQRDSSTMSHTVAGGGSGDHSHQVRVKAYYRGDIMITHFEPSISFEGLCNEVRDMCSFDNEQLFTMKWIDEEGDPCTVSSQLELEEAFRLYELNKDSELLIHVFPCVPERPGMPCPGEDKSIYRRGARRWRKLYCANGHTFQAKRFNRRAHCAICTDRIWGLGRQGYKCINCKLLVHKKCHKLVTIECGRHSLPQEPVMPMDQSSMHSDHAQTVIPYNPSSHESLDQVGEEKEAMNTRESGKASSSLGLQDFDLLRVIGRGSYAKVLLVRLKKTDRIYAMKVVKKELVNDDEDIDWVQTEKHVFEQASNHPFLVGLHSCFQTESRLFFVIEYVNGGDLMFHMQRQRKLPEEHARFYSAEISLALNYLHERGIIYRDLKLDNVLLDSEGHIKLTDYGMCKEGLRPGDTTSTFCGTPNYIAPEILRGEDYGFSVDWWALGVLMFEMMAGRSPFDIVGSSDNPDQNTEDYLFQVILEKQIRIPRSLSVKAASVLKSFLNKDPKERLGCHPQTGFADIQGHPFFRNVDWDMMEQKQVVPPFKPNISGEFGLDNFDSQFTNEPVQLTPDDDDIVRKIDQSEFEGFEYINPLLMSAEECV
Kind of experiment: surface plasmon resonance, PKCι immobilized by amine coupling; also cell-free kinase assay IC50 […]. It counts as binding. Background: Surface plasmon resonance follows binding to a sensor surface in real time, without labels.

A word on the Kd: it is the constant that tells how readily two partners part at equilibrium.

Structures are written as SMILES.

Molecule `CCc1c(O)c(O)c2c(c1O)C(=O)C(O)=C(O)C2=O` [Ech A, 6-ethyl-2,3,5,7,8-pentahydroxy-1,4-naphthoquinone] came in with a Kd of 6.3 nM.
